Measurements reported in patent US20230158015A1, “DRUG COMBINATIONS FOR INHIBITING INFLAMMATION AND SRC KINASE ACTIVATION FOLLOWING INVASIVE SURGICAL PROCEDURES” (SINTETICA S.A., priority 2020, published 2023).
Where two headings read alike, the source gives them in different places.

Assays:
[1] = test system: p-Src / total Src; type: cell-based, mouse
Experimental: On day 1, mouse KPC-105 cells were cultured until 300,000 cells per well in a 6 well plate were obtained. On day 2, the cells were treated with 0, 0.5, 1,5, 10, 15, 30, 50 and 100 µM lidocaine for 30 minutes. Plates were then collected and washed with phosphate buffered saline and stored at -80° C. Cells were subsequently lysed with 100 µl of radioimmunoprecipitation assay buffer with protease and phosphatase buffers.
(§1) Protein estimation was done using a Bradford assay under the following conditions: • A Western Blot was stripped with 6 M guanidine hydrochloride after p-Src protein blocking to probe with total Src protein. • 10% SDS-PAGE 10 well Blocking: 5% bovine serum albumin for p-Src blot. • P-Src-Tyr416 (GeneTex GTX81151) Rb: 1:1000 in 5% bovine serum albumin, Overnight. • Total Src (Cell Signaling Technology 2108S ) Rb mAb 1:1000 overnight in 5% milk. • GAPDH (Invitrogen# AM4300) : 1:5000 in 5% milk overnight. • Wash: 4x for 5 minutes each with 1x TBST. • Developed using 50% femto for the p-Src protein and homemade ECL substrate for total Src and GAPDH protein.
Example 4 evaluated endogenous Src and p-Src in 10 µM lidocaine treated mouse KPC-105 cells at different time points.
Example 5 evaluated endogenous Src and p-Src in mouse KPC-105 cells treated with 10 10 µM lidocaine for different time points, and increasing doses of methylnaltrexone after one hour of incubation. Western Blot banding patterns were generated using 15 µg /lane (NP40 lysates) 10% SDS PAGE over a 6-hour duration (lidocaine) and a 1-hour duration (methylnaltrexone).
• P-Src-Tyr416 (GeneTex # GTX81151) Rb: 1:1000 in 5% bovine serum albumin o/n at 4° C. • 10 µg /lane (NP40 lysates) 10% SDS PAGE • Total Src (CST # 2108S ) Rb mAb 1:1000 in 5% bovine serum albumin o/n at 4° C.
• P-Src-Tyr416 (GeneTex # GTX81151) Rb: 1:1000 in 5% bovine serum albumin 3 hours at room temperature • 10 µg /lane (NP40 lysates) 10% SDS PAGE • Total Src (CST # 2108S ) Rb mAb 1:1000 in 5% bovine serum albumin 3 hours at room temperature
• P-Src-Tyr416 (GeneTex # GTX81151) 1:2000 in 5% bovine serum albumin, o/n at 4° C. • Total Src (CST # 2108S ) 1:3000 in 5% bovine serum albumin, o/n at 4° C. • Vinculin (ProteinTech) 1:4000 in 5% milk o/n at 4° C.
• P-Src-Tyr416 (GeneTex # GTX81151) 1:2000 in 5% bovine serum albumin, o/n at 4C • Total Src (CST # 2108S ) 1:3000 in 5% bovine serum albumin, o/n at 4C

[2] = test system: p-Src / total Src; experiment: Total Src and p-Src expression in AsPc 1 human pancreatic cancer cell line (Western blot); type: cell-based
Experimental: Example 10 evaluated the effect of 10 µM lidocaine (L), 100 nM methylnaltrexone (M) and the combination of 10 µM lidocaine + 100 nM methylnaltrexone (L+M) for 1 hour on total Src and p-Src expression in a human pancreatic cancer cell line (AsPc 1).
(§2) • P-Src-Tyr416 (GeneTex # GTX81151) 1:2000 in 5% bovine serum albumin, at room temperature, 4 hours • Total Src (CST # 2108S) 1:3000 in 5% bovine serum albumin, at room temperature, 4 hours

[3] = test system: p-Src / total Src; experiment: Total Src and p-Src expression in MiaPaCa 2 human pancreatic cancer cell line (Western blot); type: cell-based; conditions: 10 µM lidocaine, 100 nM methylnaltrexone or both, one hour
Experimental: as §2
Example 11 evaluated the effect of 10 µM lidocaine (L), 100 nM methylnaltrexone (M) and the combination of 10 µM lidocaine + 100 nM methylnaltrexone (L+M) for 1 hour on total Src and p-Src expression in a human pancreatic cancer cell line (MiaPaCa 2). Experimental conditions were identical to Example 10.

[4] = test system: p-Src / total Src; experiment: Total Src and p-Src expression in Panc1 human pancreatic cancer cell line (Western blot); type: cell-based; conditions: 10 µM lidocaine, 100 nM methylnaltrexone or both, time points up to 6 hours, fresh media
Experimental: as §2
Example 12 evaluated the effect of 10 µM lidocaine (L), 100 nM methylnaltrexone (M) and the combination of 10 µM lidocaine + 100 nM methylnaltrexone (L+M) on total Src and p-Src expression in a human pancreatic cancer cell line (Panc1) at multiple time points up to 6 hours, in fresh media. Experimental conditions were identical to Example 10.

[5] = test system: LPS-challenged C57BL/6 mice; experiment: LPS-induced inflammation model, H&E histopathology of lungs and spleen; type: in vivo, mouse
Experimental: (§3) C57BL/6J mice (6-8 weeks) were purchased from Charles River Laboratories (USA) and acclimatized for at least 1 week before use. All mice were housed in a pathogen-free facility. The mice received LPS for 24 hours. Following 24 hours, mice were treated either with lidocaine alone or methylnaltrexone alone or a combination of both, as shown in Table 1.
(§4) At the conclusion of the study, the blood and tissue samples were collected for further study. The serum was used to determine pro-inflammatory cytokines using the LEGENDplex™ mouse inflammation panel (BioLegend, USA) kit followed by flow cytometry. The lungs and spleen tissue samples were used for hematoxylin and eosin (H&E) staining and immunohistochemical analyses for immune cells, including macrophages and natural killer (NK) cells, B cells, T cells, and its subsets. For histopathology and immunohistochemistry (IHC), tissue samples were prepared by cutting 4-µm sections from the paraffin blocks. IHC staining was performed by methods described earlier. The images were captured using bright field microscopy (Nikon Microscope). Two independent investigators evaluated the H&E and all immunohistochemical staining. For slide scoring, each investigator assessed the tissues and gave a score of 0 (no expression) to 4+ (strong uniform expression) as described previously. The data were expressed either as the mean ± SD or mean ± SEM by using Graph Pad Prism software.

[6] = test system: LPS-induced serum inflammatory cytokines; experiment: LPS-induced inflammation model, serum inflammatory cytokines (LEGENDplex, flow cytometry); type: in vivo, mouse; conditions: serum of treated mice
Experimental: as §3, §4
Gram-negative bacterial infections are the main cause of acute lung injury, and LPS, which is the main component of the Gram-negative bacteria cell wall, is the major stimulus for the release of inflammatory mediators. Therefore, we measured the effect of lidocaine alone, methylnaltrexone alone, or a combination of lidocaine and methylnaltrexone on LPS-induced serum inflammatory cytokines profiles. Mouse inflammatory cytokines were measured in serum of control and LPS-challenged mice treated with drugs as described in Table 1, using the LEGENDplex™ mouse inflammation panel (BioLegend, USA) kit followed by flow cytometry as per manufacturer’s specifications. […] However, serum tumor necrosis factor-alpha (TNF-α), monocyte chemoattractant protein 1 (MCP- 1), interleukin 10 (IL-10), interleukin 6 (IL-6), and interleukin 17A (IL-17A) levels were found decreased in mice challenged with LPS and treated with lidocaine and methylnaltrexone together (FIGS. 14C-G). IL-1, IL-6, IL-17A, MCP-1, and TNFα are pro- inflammatory cytokines associated with inflammatory signaling. Taken together, these findings indicate that combined treatment of lidocaine and methylnaltrexone has the potential to suppress inflammatory signaling.

[7] = test system: immune cells in lungs and spleen of LPS-challenged mice; experiment: LPS-induced inflammation model, IHC staining of immune cells in lungs and spleen; type: in vivo, mouse; conditions: lungs and spleen sections
Experimental: as §3
as §4, with “The data were expressed either as the mean ± SD or mean ± SEM by using Graph Pad Prism software.” left out

[8] = test system: human pulmonary microvascular endothelial cell; conditions: with 5-FU and bevacizumab; cited from earlier work
[9] = test system: receptor protein tyrosine phosphatase; conditions: human endothelial cells, independent of µ-opioid receptor expression; cited from earlier work
[10] = test system: patients with advanced disease and cancer; conditions: regular clinical doses; cited from earlier work
[11] = test system: Src protein; experiment: p-Src activation in TNF-α treated KPC-105 mouse cell line (Western blot); type: cell-based; conditions: TNF-α 20 ng/ml
Experimental: (§5) On day 1, KPC-105 mouse and human pancreatic cancer cell lines were cultured until 300,000 cells per well in a 6 well plate were obtained. On day 2, each cell line was treated with 20 ng/ml or mouse or human TNF-α for 2-hours. Cells were then collected and washed with phosphate buffered saline and stored at -80° C. Cells were then lysed with 100 µl of radioimmunoprecipitation assay buffer with protease and phosphatase buffers.
as §1, with “estimation was then performed using a” for “estimation was done using a”, “10% SDS-PAGE with 15 well Blocking:” for “10% SDS-PAGE 10 well Blocking:”, “for p-Src blot P-Src-Tyr416 (GeneTex” for “for p-Src blot. • P-Src-Tyr416 (GeneTex”, “overnight in 5 % milk. •” for “overnight in 5% milk. •”, “homemade ECL for total” for “homemade ECL substrate for total”

[12] = test system: Src protein; experiment: p-Src activation in TNF-α treated human pancreatic cancer cell line (Western blot); type: cell-based; conditions: TNF-α 20 ng/ml
Experimental: as §5
as §1, with “estimation was then performed using a” for “estimation was done using a”, “10% SDS-PAGE with 15 well Blocking:” for “10% SDS-PAGE 10 well Blocking:”, “for p-Src blot P-Src-Tyr416 (GeneTex” for “for p-Src blot. • P-Src-Tyr416 (GeneTex”, “overnight in 5 % milk. •” for “overnight in 5% milk. •”, “homemade ECL for total” for “homemade ECL substrate for total”

[13] = Example 8, 10 µM lidocaine, 100 nM methylnaltrexone or both, different time points

| Compound | total Src ([1]; Example 5, 10 µM lidocaine over 6 hours, increasing doses of methylnaltrexone, 1 hour) | concentrations attenuating Src phosphorylation ([1]; Example 5, 1 hour incubation) | phosphorylation of Src ([1]; Example 6, 100 nM methylnaltrexone, different time points) | phosphorylation of Src [1, 13] | total Src [1, 13] | Src after Src normalization ([2]; 100 nM methylnaltrexone exposure, preliminary results) | p-Src activity ([2]; 10 µM lidocaine, 100 nM methylnaltrexone or both, one hour) | p-Src [3] | p-Src [4] | H&E staining, histopathology of lungs ([5]; LPS challenged mice, lungs) | histological examination of spleen ([5]; LPS challenged mice, spleen) | LPS-induced inflammation (overall conclusion) ([5]; mouse model, drug alone) | serum interferon-gamma (IFNγ) level [6] | serum interleukin 1 alpha (IL-1α) level [6] | F4/80 positive area (macrophages) [7] | inhibition of VEGF-induced cell proliferation and migration [8] | receptor protein tyrosine phosphatase activity [9] | overall survival [10] | time of maximum activation of Src protein [11] | time of maximum activation of Src protein [12] |
| --- | --- | --- | --- | --- | --- | --- | --- | --- | --- | --- | --- | --- | --- | --- | --- | --- | --- | --- | --- | --- |
| C[N@+]1(CC2CC2)CC[C@]23c4c5ccc(O)c4O[C@H]2C(=O)CC[C@@]3(O)[C@H]1C5 [methylnaltrexone] | not affected | above 50 nM | attenuates phosphorylation of Src in KPC-105 cells starting at 2 hours | attenuated phosphorylation of Src after 1 hour of exposure | decreased total Src after 1 hour of exposure | no increase in Src | attenuated p-Src activity | attenuated p-Src | initially decreased p-Src at 30 minutes and 1 hour | perivascular edema and accumulation of mixed cell infiltration within blood, and lymphatic vessels | increased number of erythrocytes in the red pulp, along with mild edema | partially mitigate | insignificant changes | insignificant changes | partially decreased | synergistic effect | increased | increased overall survival |  |  |
| O=C1CC[C@@]2(O)[C@H]3Cc4ccc(O)c5c4[C@@]2(CCN3CC2CC2)[C@H]1O5 [naltrexone] |  |  |  |  |  |  |  |  |  |  |  |  |  |  |  |  | not |  |  |  |
| TNF-α |  |  |  |  |  |  |  |  |  |  |  |  |  |  |  |  |  |  | 45 min | 45 min |
